Measured values: patent publication US10377743B2, “Inhibitors of RAS and methods of use thereof” (Araxes Pharma LLC, priority 2016, dated 2019)

Target: T1, KRAS G12C 1-169, his-tagged protein, GDP-loaded (Homo sapiens, UniProt P01116, G12C)
T1 construct: KRAS G12C 1-169, his-tagged protein, GDP-loaded
Experiment: Biochemical assay: covalent binding (modification %) to KRAS G12C by mass spectrometry
Conditions: 2 hour incubation period
Protocol: Test compounds were prepared as 10 mM stock solutions in DMSO (Fisher cat# BP-231-100). KRAS G12C 1-169, his-tagged protein, GDP-loaded was diluted to 2 μM or 0.5 μM in buffer (20 mM Hepes, 150 mM NaCl, 1 mM MgCl2). Compounds were tested for activity as follows:
Compounds were diluted to 50× final test concentration in DMSO in 96-well storage plates. Compound stock solutions were vortexed before use and observed carefully for any sign of precipitation. Dilutions were as follow: • For 100 μM final compound concentration, compounds were diluted to 5000 μM (5 μL 10 mM compound stock+5 μL DMSO and mixed well by pipetting. • For 30 μM final compound concentration, compounds were diluted to 1500 μM (3 μL 10 mM compound stock+17 μL DMSO) and mixed well by pipetting. • For 10 μM final compound concentration, compounds were diluted to 500 μM (2 μL 10 mM compound stock+38 μL DMSO) and mixed well by pipetting. 49 μL of the stock protein solution was added to each well of a 96-well PCR plate (Fisher cat#1423027). 1 μl of the diluted 50× compounds were added to appropriate wells in the PCR plate using 12-channel pipettor. Reactions were mixed carefully and thoroughly by pipetting up/down with a 200 μL multi-channel pipettor. The plate was sealed well with aluminum plate seal, and stored in drawer at room temperature for 10 minutes, 30 minutes, 2 hours or 24 hours. 5 μL of 2% formic acid (Fisher cat# A117) in de-ionized H2O was then added to each well followed by mixing with a pipette. The plate was then resealed with aluminum seal and stored on dry ice until analyzed as described below.
The above described assays were analyzed by mass spectrometry according to one of the following two procedures:
The MS instrument is set to positive polarity, 2 GHz resolution, and low mass (1700) mode and allowed to equilibrate for 30 minutes. The instrument is then calibrated, switched to acquisition mode and the appropriate method loaded.
After another 30 minute equilibration time, a blank batch (i.e., buffer) is run to ensure equipment is operating properly. The samples are thawed at 37° C. for 10 minutes, briefly centrifuged, and transfer to the bench top. Wells A1 and H12 are spiked with 1 μL 500 μM internal standard peptide, and the plates centrifuged at 2000×g for 5 minutes. The method is then run and masses of each individual well recorded.
The masses (for which integration data is desired) for each well are pasted into the platemap and exported from the analysis. Masses for the internal standards are exported as well. The data at 50 ppm is extracted for the +19 charge state, and identity of well A1 is assigned using the internal standard spike and integrated. Peak data is exported as a TOF list and the above steps are repeated individually, for the +20, 21, 22, 23, 24, and 25 charge states.
The masses and peak intensities of KRAS G12C protein species were measured using a Dionex RSLCnano system (Thermo Scientific) connected to a Q Exactive Plus mass spectrometer (Thermo Scientific).
[…] of sample was each loaded onto a Aeris™ 3.6 μm WIDEPORE C4 200 Å, LC Column 50×2.1 mm column maintained at 40° C. at a flow rate of 600 μL/min with 20% Solvent A (0.1% formic acid in H2O) and 80% Solvent B (0.1% formic acid in acetonitrile). The liquid chromatography conditions were 20% solvent B for 1 minute, 20% to 60% solvent B for 1.5 minutes, 60% to 90% solvent for 0.5 minute, 90% solvent B for 0.2 minute, 90% to 20% solvent B for 0.2 minute, and then equilibrated for 1.6 minute before the following sample injection. The flow rate was maintained at 600 μL/min throughout the sample analysis.
The mass spectrometer was operated in profile mode at a resolution of 17500, 5 microscans, using 50 msec max injection time and an AGC target of 1×10^6, and a full mass range from 800-1850 m/z was recorded. The HCD trapping gas was optimized for maximum sensitivity for intact proteins. […]

[1] = 8 μM compound (compounds 21-92)
[2] = 10 μM compound (compounds 1-20)

SMILES: C=CC(=O)N1CC(N2Cc3ccc(-c4cc(O)cc5ccccc45)nc3C2=O)C1 [Compound 82, 6-(1-acryloylazetidin-3-yl)-2-(3-hydroxynaphthalen-1-yl)-5,6-dihydro-7H-pyrrolo[3,4-b]pyridin-7-one]
- Binding % [1]: + (+ indicates binding activity up to 10%)

SMILES: C=CC(=O)N1CC(N2Cc3cc(F)c(-c4cc(O)cc5ccccc45)cc3C2=O)C1 [Compound 19, 2-(1-acryloylazetidin-3-yl)-5-fluoro-6-(3-hydroxynaphthalen-1-yl)isoindolin-1-one]
- Binding % [2]: +++ (+++ indicates binding activity greater than 50%)

SMILES: C=CC(=O)N1CC(N2Cc3cc(Cl)c(-c4c(C)ccc5[nH]ncc45)cc3C2=O)C1 [Compound 74, 2-(1-acryloylazetidin-3-yl)-5-chloro-6-(5-methyl-1H-indazol-4-yl)isoindolin-1-one]
- Binding % [1]: ++ (++ indicates binding activity from 10 to 50%)

SMILES: C=CC(=O)N1CC(N2Cc3ccc(-c4cc(O)cc(Cl)c4)cc3C2=O)C1 [Compound 49, 2-(1-acryloylazetidin-3-yl)-6-(3-chloro-5-hydroxyphenyl)isoindolin-1-one]
- Binding % [1]: ++ (++ indicates binding activity from 10 to 50%)

SMILES: C=CC(=O)N1CC(N2Cc3cc(C(N)=O)c(-c4cc(O)cc5ccccc45)cc3C2=O)C1 [Compound 63, 2-(1-acryloylazetidin-3-yl)-6-(3-hydroxynaphthalen-1-yl)-1-oxoisoindoline-5-carboxamide]
- Binding % [1]: ++ (++ indicates binding activity from 10 to 50%)

SMILES: C=CC(=O)N1CCC(N2Cc3ccc(-c4cc(O)cc5ccccc45)cc3C2=O)CC1 [Compound 7, 2-(1-acryloylpiperidin-4-yl)-6-(3-hydroxynaphthalen-1-yl)isoindolin-1-one]
- Binding % [2]: + (+ indicates binding activity up to 10%)

SMILES: C=CC(=O)N1CC(N2Cc3c(F)cc(-c4cc(O)cc5ccccc45)cc3C2=O)C1 [Compound 27, 2-(1-acryloylazetidin-3-yl)-4-fluoro-6-(3-hydroxynaphthalen-1-yl)isoindolin-1-one]
- Binding % [1]: +++ (+++ indicates binding activity greater than 50%)

SMILES: C=CC(=O)N1CC(N2Cc3ccc(-c4ccc(NC)cc4)cc3C2=O)C1 [Compound 52, 2-(1-acryloylazetidin-3-yl)-6-(4-(methylamino)phenyl)isoindolin-1-one]
- Binding % [1]: + (+ indicates binding activity up to 10%)

SMILES: C=CC(=O)N1CC(N2Cc3c(Cl)cc(-c4cc(O)cc5ccccc45)cc3C2=O)C1 [Compound 12, 2-(1-acryloylazetidin-3-yl)-4-chloro-6-(3-hydroxynaphthalen-1-yl)isoindolin-1-one]
- Binding % [2]: +++ (+++ indicates binding activity greater than 50%)

SMILES: C=CC(=O)N1CC(N2Cc3sc(-c4cc(O)cc5ccccc45)cc3C2=O)C1 [Compound 34, 5-(1-acryloylazetidin-3-yl)-2-(3-hydroxynaphthalen-1-yl)-5,6-dihydro-4H-thieno[2,3-c]pyrrol-4-one]
- Binding % [1]: +++ (+++ indicates binding activity greater than 50%)

SMILES: C=CC(=O)N1CC(N2Cc3ccc(-c4c(C)ccc5[nH]ncc45)cc3C2)C1 [Compound 56, 1-(3-(5-(5-methyl-1H-indazol-4-yl)isoindolin-2-yl)azetidin-1-yl)prop-2-en-1-one]
- Binding % [1]: + (+ indicates binding activity up to 10%)

SMILES: C=CC(=O)N1CC(N2Cc3sc(-c4c(C)ccc5[nH]ncc45)cc3C2=O)C1 [Compound 42, 5-(1-acryloylazetidin-3-yl)-2-(5-methyl-1H-indazol-4-yl)-5,6-dihydro-4H-thieno[2,3-c]pyrrol-4-one]
- Binding % [1]: ++ (++ indicates binding activity from 10 to 50%)

SMILES: C=CC(=O)N1CC(N2Cc3ccc(-c4cc(O)cc5ccccc45)c(F)c3C2=O)C1 [Compound 67, 2-(1-acryloylazetidin-3-yl)-7-fluoro-6-(3-hydroxynaphthalen-1-yl)isoindolin-1-one]
- Binding % [1]: +++ (+++ indicates binding activity greater than 50%)

SMILES: C=CC(=O)N1CC(N2Cc3ccc(C(=O)N4CCC(N)C4)cc3C2=O)C1 (centres unmarked) [Compound 79, 2-(1-acryloylazetidin-3-yl)-6-(3-aminopyrrolidine-1-carbonyl)isoindolin-1-one]
- Binding % [1]: + (+ indicates binding activity up to 10%)

SMILES: C=CC(=O)N1CC(N2Cc3c(C)cc(-c4cc(O)ccc4Cl)cc3C2=O)C1 [Compound 15, 2-(1-acryloylazetidin-3-yl)-6-(2-chloro-5-hydroxyphenyl)-4-methylisoindolin-1-one]
- Binding % [2]: ++ (++ indicates binding activity from 10 to 50%)

SMILES: C=CC(=O)N1CC(N2Cc3ccc(N4CCCC(O)C4)cc3C2=O)C1 (centres unmarked) [Compound 72, 2-(1-acryloylazetidin-3-yl)-6-(3-hydroxypiperidin-1-yl)isoindolin-1-one]
- Binding % [1]: + (+ indicates binding activity up to 10%)

SMILES: C=CC(=O)N1CC(N2Cc3ccc(-c4c(O)cccc4F)cc3C2=O)C1 [Compound 6, 2-(1-acryloylazetidin-3-yl)-6-(2-fluoro-6-hydroxyphenyl)isoindolin-1-one]
- Binding % [2]: + (+ indicates binding activity up to 10%)

SMILES: C=CC(=O)N1CC(N2Cc3ccc(NC(=O)c4cn[nH]c4)cc3C2=O)C1 [Compound 86, N-(2-(1-acryloylazetidin-3-yl)-3-oxoisoindolin-5-yl)-1H-pyrazole-4-carboxamide]
- Binding % [1]: + (+ indicates binding activity up to 10%)

SMILES: C=CC(=O)N1CC(N2Cc3cc(Cl)c(-c4cc(O)cc5ccccc45)cc3C2=O)C1 [Compound 70, 2-(1-acryloylazetidin-3-yl)-5-chloro-6-(3-hydroxynaphthalen-1-yl)isoindolin-1-one]
- Binding % [1]: +++ (+++ indicates binding activity greater than 50%)

SMILES: C=CC(=O)N1CC(N2Cc3ccc(-c4c(O)cccc4F)cc3CC2=O)C1 [Compound 41, 2-(1-acryloylazetidin-3-yl)-6-(2-fluoro-6-hydroxyphenyl)-1,2-dihydroisoquinolin-3(4H)-one]
- Binding % [1]: ++ (++ indicates binding activity from 10 to 50%)

SMILES: C=CC(=O)N1CC(N2Cc3ccc(-c4cccnc4O)cc3C2=O)C1 [Compound 68, 2-(1-acryloylazetidin-3-yl)-6-(2-hydroxypyridin-3-yl)isoindolin-1-one]
- Binding % [1]: + (+ indicates binding activity up to 10%)

SMILES: C=CC(=O)N1CC(N2Cc3cc(F)c(-c4cc(O)ccc4Cl)cc3C2=O)C1 [Compound 21, 2-(1-acryloylazetidin-3-yl)-6-(2-chloro-5-hydroxyphenyl)-5-fluoroisoindolin-1-one]
- Binding % [1]: ++ (++ indicates binding activity from 10 to 50%)

SMILES: C=CC(=O)N1CCC(N2Cc3c(C(N)=O)cc(-c4c(C)ccc5[nH]ncc45)cc3C2=O)C1 (centres unmarked) [Compound 85, 2-(1-acryloylpyrrolidin-3-yl)-6-(5-methyl-1H-indazol-4-yl)-1-oxoisoindoline-4-carboxamide]
- Binding % [1]: + (+ indicates binding activity up to 10%)

SMILES: C=CC(=O)N1CC(N2Cc3ccc(-c4cc(O)ccc4Cl)cc3C2=O)C1 [Compound 10, 2-(1-acryloylazetidin-3-yl)-6-(2-chloro-5-hydroxyphenyl)isoindolin-1-one]
- Binding % [2]: +++ (+++ indicates binding activity greater than 50%)

SMILES: C=CC(=O)N1CC(N2Cc3ccc(-c4c(C)ccc5[nH]ncc45)cc3C2=O)C1 [Compound 5, 2-(1-acryloylazetidin-3-yl)-6-(5-methyl-1H-indazol-4-yl)isoindolin-1-one]
- Binding % [2]: ++ (++ indicates binding activity from 10 to 50%)

SMILES: C=CC(=O)N1CC(N2Cc3ccc(-c4c[nH]c5ccccc45)cc3C2=O)C1 [Compound 16, 2-(1-acryloylazetidin-3-yl)-6-(1H-indol-3-yl)isoindolin-1-one]
- Binding % [2]: ++ (++ indicates binding activity from 10 to 50%)
